Assay type in all cases: functional
The subject of experiment [1] is Staphylococcus aureus. The experiment can be described thus: Antibacterial activity against methicillin-resistant Staphylococcus aureus infected in New Zealand white rabbit osteomyelitis model assessed as change in bacterial load in joint fluid per gram of tissue at 500 ug/mg administered via calcium-deficient apatite followed by constant iv infusion on day 3 post infection measured on day 7 by HPLC analysis.

In experiment [2] the test system is Staphylococcus aureus. The experiment can be described thus: Antibacterial activity against methicillin-resistant Staphylococcus aureus infected in New Zealand white rabbit osteomyelitis model assessed as change in bacterial load in bone per gram of tissue administered via constant iv infusion in presence of unloaded calcium-deficient apatites on day 3 post infection measured on day 7 by HPLC analysis.

The test system of experiment [3] is Staphylococcus aureus. The experiment can be described thus: Antibacterial activity against methicillin-resistant Staphylococcus aureus infected in New Zealand white rabbit osteomyelitis model assessed as change in bacterial load in joint fluid per gram of tissue administered via constant iv infusion in presence of unloaded calcium-deficient apatites on day 3 post infection measured on day 7 by HPLC analysis.

Experiment [4] has as its system Staphylococcus aureus. The experiment can be described thus: Antibacterial activity against methicillin-resistant Staphylococcus aureus infected in New Zealand white rabbit osteomyelitis model assessed as change in bacterial load in bone marrow per gram of tissue at 25 ug/mg administered via calcium-deficient apatite on day 3 post infection measured on day 7 by HPLC analysis.

The subject of experiment [5] is Staphylococcus aureus. The experiment can be described thus: Antibacterial activity against methicillin-resistant Staphylococcus aureus infected in New Zealand white rabbit osteomyelitis model assessed as change in bacterial load in joint fluid per gram of tissue at 25 ug/mg administered via calcium-deficient apatite on day 3 post infection measured on day 7 by HPLC analysis.

In experiment [6] the test system is Staphylococcus aureus. The experiment can be described thus: Antibacterial activity against methicillin-resistant Staphylococcus aureus infected in New Zealand white rabbit osteomyelitis model assessed as change in bacterial load in joint fluid per gram of tissue at 25 ug/mg administered via calcium-deficient apatite followed by constant iv infusion on day 3 post infection measured on day 7 by HPLC analysis.

Experiment [7] concerns Staphylococcus aureus. Kind of experiment: Antibacterial activity against methicillin-resistant Staphylococcus aureus infected in New Zealand white rabbit osteomyelitis model assessed as change in bacterial load in bone marrow per gram of tissue administered via constant iv infusion on day 3 post infection measured on day 7 by HPLC analysis.
Experiment [8] relates to Staphylococcus aureus. The experiment can be described thus: Antibacterial activity against methicillin-resistant Staphylococcus aureus infected in New Zealand white rabbit osteomyelitis model assessed as change in bacterial load in bone marrow per gram of tissue administered via constant iv infusion in presence of unloaded calcium-deficient apatites on day 3 post infection measured on day 7 by HPLC analysis.

Experiment [9] deals with Staphylococcus aureus. The experiment can be described thus: Antibacterial activity against methicillin-resistant Staphylococcus aureus infected in New Zealand white rabbit osteomyelitis model assessed as change in bacterial load in bone per gram of tissue at 25 ug/mg administered via calcium-deficient apatite followed by constant iv infusion on day 3 post infection measured on day 7 by HPLC analysis.

Experiment [10] relates to Staphylococcus aureus. Kind of experiment: Antibacterial activity against methicillin-resistant Staphylococcus aureus infected in New Zealand white rabbit osteomyelitis model assessed as change in bacterial load in bone per gram of tissue at 25 ug/mg administered via calcium-deficient apatite on day 3 post infection measured on day 7 by HPLC analysis.
For experiment [11], the system named is Staphylococcus aureus. The experiment can be described thus: Antibacterial activity against methicillin-resistant Staphylococcus aureus infected in New Zealand white rabbit osteomyelitis model assessed as change in bacterial load in bone per gram of tissue at 100 ug/mg administered via calcium-deficient apatite followed by constant iv infusion on day 3 post infection measured on day 7 by HPLC analysis.

Experiment [12] deals with Staphylococcus aureus. Kind of experiment: Antibacterial activity against methicillin-resistant Staphylococcus aureus infected in New Zealand white rabbit osteomyelitis model assessed as change in bacterial load in bone per gram of tissue at 500 ug/mg administered via calcium-deficient apatite on day 3 post infection measured on day 7 by HPLC analysis.
Experiment [13] has as its system Staphylococcus aureus. Kind of experiment: Antibacterial activity against methicillin-resistant Staphylococcus aureus infected in New Zealand white rabbit osteomyelitis model assessed as change in bacterial load in joint fluid per gram of tissue at 500 ug/mg administered via calcium-deficient apatite on day 3 post infection measured on day 7 by HPLC analysis.
For experiment [14], the system named is Staphylococcus aureus. Kind of experiment: Antibacterial activity against methicillin-resistant Staphylococcus aureus infected in New Zealand white rabbit osteomyelitis model assessed as change in bacterial load in joint fluid per gram of tissue administered via constant iv infusion on day 3 post infection measured on day 7 by HPLC analysis.
The test system of experiment [15] is Staphylococcus aureus. The experiment can be described thus: Antibacterial activity against methicillin-resistant Staphylococcus aureus infected in New Zealand white rabbit osteomyelitis model assessed as change in bacterial load in joint fluid per gram of tissue at 100 ug/mg administered via calcium-deficient apatite on day 3 post infection measured on day 7 by HPLC analysis.

Experiment [16] has as its system Staphylococcus aureus. Kind of experiment: Antibacterial activity against methicillin-resistant Staphylococcus aureus infected in New Zealand white rabbit osteomyelitis model assessed as change in bacterial load in joint fluid per gram of tissue at 100 ug/mg administered via calcium-deficient apatite followed by constant iv infusion on day 3 post infection measured on day 7 by HPLC analysis.

The subject of experiment [17] is Staphylococcus aureus. Kind of experiment: Antibacterial activity against methicillin-resistant Staphylococcus aureus infected in New Zealand white rabbit osteomyelitis model assessed as change in bacterial load in bone marrow per gram of tissue at 100 ug/mg administered via calcium-deficient apatite followed by constant iv infusion on day 3 post infection measured on day 7 by HPLC analysis.

The subject of experiment [18] is Staphylococcus aureus. Kind of experiment: Antibacterial activity against methicillin-resistant Staphylococcus aureus infected in New Zealand white rabbit osteomyelitis model assessed as change in bacterial load in bone marrow per gram of tissue at 100 ug/mg administered via calcium-deficient apatite on day 3 post infection measured on day 7 by HPLC analysis.
In experiment [19] the test system is Staphylococcus aureus. Kind of experiment: Antibacterial activity against methicillin-resistant Staphylococcus aureus infected in New Zealand white rabbit osteomyelitis model assessed as change in bacterial load in bone marrow per gram of tissue at 25 ug/mg administered via calcium-deficient apatite followed by constant iv infusion on day 3 post infection measured on day 7 by HPLC analysis.

For experiment [20], the system named is Staphylococcus aureus. The experiment can be described thus: Antibacterial activity against methicillin-resistant Staphylococcus aureus infected in New Zealand white rabbit osteomyelitis model assessed as change in bacterial load in bone per gram of tissue administered via constant iv infusion on day 3 post infection measured on day 7 by HPLC analysis.
The subject of experiment [21] is Staphylococcus aureus. The experiment can be described thus: Antibacterial activity against methicillin-resistant Staphylococcus aureus infected in New Zealand white rabbit osteomyelitis model assessed as change in bacterial load in bone per gram of tissue at 100 ug/mg administered via calcium-deficient apatite on day 3 post infection measured on day 7 by HPLC analysis.

The subject of experiment [22] is Staphylococcus aureus. Kind of experiment: Antibacterial activity against methicillin-resistant Staphylococcus aureus infected in New Zealand white rabbit osteomyelitis model assessed as change in bacterial load in bone marrow per gram of tissue at 500 ug/mg administered via calcium-deficient apatite followed by constant iv infusion on day 3 post infection measured on day 7 by HPLC analysis.

Experiment [23] deals with Staphylococcus aureus. The experiment can be described thus: Antibacterial activity against methicillin-resistant Staphylococcus aureus infected in New Zealand white rabbit osteomyelitis model assessed as change in bacterial load in bone marrow per gram of tissue at 500 ug/mg administered via calcium-deficient apatite on day 3 post infection measured on day 7 by HPLC analysis.

SMILES strings stand for the structures.

Consider `CN[C@H](CC(C)C)C(=O)N[C@H]1C(=O)N[C@@H](CC(N)=O)C(=O)N[C@H]2C(=O)N[C@H]3C(=O)N[C@H](C(=O)N[C@H](C(=O)O)c4cc(O)cc(O)c4-c4cc3ccc4O)[C@H](O)c3ccc(c(Cl)c3)Oc3cc2cc(c3O[C@@H]2O[C@H](CO)[C@@H](O)[C@H](O)[C@H]2O[C@H]2C[C@](C)(N)[C@H](O)[C@H](C)O2)Oc2ccc(cc2Cl)[C@H]1O` [VANCOMYCIN], for which the log10cfu in [1] was found to be 1.69; in experiment [2] it was 0.35; in experiment [3], 0.3; in [4], 1.89; in [5], 0.56; in [6] it was 0.68. For the same compound, the log10cfu was 0.73 in [7]; 0.75 in experiment [8]; -2.4 in [9]; 1.97 in experiment [10]; -4.63 in experiment [11]; 3.57 in [12]. Besides, the log10cfu is 0.29 in experiment [13]; 0.03 in experiment [14]; 0.05 in [15]; 0.9 in experiment [16]; -4.03 in [17]; 3.41 in [18]. In addition, the log10cfu in experiment [19] was -3.14; in experiment [20], 0.61; in [21] it was 2.35; in experiment [22] it was 4.21; in experiment [23], 4.08.

The record behind these values is ChEMBL document CHEMBL1240361 (2010).
